According to patent US9944991B2, “Compositions and methods for diagnosis, prognosis and treatment of hematological malignancies” (Dana-Farber Cancer Institute, Inc., priority 2012, dated 2018):

Key:
BCWM.1 cells [1] = assay: [3H]-TdR uptake of BCWM.1 cells adherent to BMSCs; format: cell-based, human; conditions: 0.1-10 nM, 48 hours
Experimental: (§1) The bone marrow (BM) microenvironment confers growth and induces drug resistance in malignant cells (Mitsiades C. S. et al., Eur. J. Cancer., 42(11):1564-73 (2006)). It was therefore sought to determine the anti-tumor activity of everolimus in the presence of the BM microenvironment. It was first investigated whether everolimus inhibits WM cell growth in the context of the BM milieu. BCWM.1 cells were exposed to everolimus (0.1-10 nM) in the presence or absence of BMSCs for 48 hours. The viability of BMSCs assessed by MTT was not affected by everolimus treatment (data not shown). […] Next, the efficacy of everolimus in affecting migration and adhesion of WM cells was evaluated. […] To study the effect of everolimus on the migration of WM cells, BCWM.1 cells were incubated with everolimus (0.01-1 nM) for 4 hours. […] Cells were then subjected to migration as previously reported (Roccaro A. M. et al., Blood, 113(26):6669-80 (2009)).

BCWM.1 cells [2] = assay: [3H]-thymidine uptake of BCWM.1 cells in presence of endothelial cells (HUVECs); format: cell-based, human; conditions: 0.01-10 nM, 48 hours
HUVECs = assay: Morphogenesis assay on Matrigel (capillary tubule formation); format: cell-based, human
Experimental: Unpolymerized Matrigel (17 mg/mL; Becton Dickinson, Mountain View, Calif.) was placed (50 μL/well) in a 96-well microtiter plate (0.32 cm2/well) and polymerized for 1 hour at 37° C. HUVECs and MMECs (5×10^3 per well) in 200 μL of DMEM/10% FCS (positive control), serum-free medium (negative control), as well as in the presence or absence of everolimus (0-0.01-0.1-1-10 nM) were layered onto the Matrigel surface. After 6 hours of incubation in a 5% CO2 humidified atmosphere at 37° C., cell growth and tridimensional organization were observed using a reverted phase-contrast light microscope, as described (Roccaro A. M. et al., Cancer Res., 66(1):184-91 (2006)).

[3] = test system: WM and IgM low grade lymphoma cell lines (BCWM.1, MWCL.1 and RL); assay: Adhesion to primary WM bone marrow stromal cells; format: cell-based, human; conditions: 0.01-1 nM
Experimental: as §1

BCWM.1 cells [4] = assay: Thymidine uptake cell proliferation assay; format: cell-based, human; conditions: 0.01-40 nM, 48 hours
BCWM.1 and MWCL.1 cells [5] = assay: Caspase-9, caspase-3 and PARP cleavage (Western blot, Caspase 3/7 Glo Assay); format: cell-based, human; conditions: 0.1-10 nM, 24 hours
Experimental: WM cell lines have been exposed to everolimus (0.1-10 nM) for 24 hours and caspase activation has been assessed using Caspase 3/7 Glo Assay (Promega, Madison, Wis.), according to manufacturer's procedure.

WM-WSU, RL, MWCL.1 cells = assay: MTT cytotoxicity on IgM low-grade lymphoma cells; format: cell-based, human; conditions: 0.01-40 nM, 48 hours
NF-κB p65 = NF-κB p65 DNA-binding activity (Active Motif TransAM) in nuclear extracts; format: cell-based, human; conditions: BCWM.1 and MWCL.1; everolimus 1 nM or bortezomib 5 nM, 4 hours; TNF-α 10 ng/mL
Text: NF-κB activity was investigated using the Active Motif TransAM kits, a DNA-binding enzyme-linked immunosorbent assay (ELISA)-based assay (Active Motif North America, Carlsbad, Calif.).

[6] = test system: primary peripheral blood-derived CD19+ cells; assay: MTT cytotoxicity on healthy donor cells; format: cell-based, human; conditions: healthy individuals, 60-1000 nM, 48 hours
BCWM.1 cells [7] = assay: Transwell migration assay towards SDF-1; format: cell-based, human; conditions: 0.01-1 nM, 4 hours, 30 nM SDF-1
Experimental: Transwell migration assay (Costar; Corning, Acton, Mass.) was performed using BCWM.1 cells in the presence or absence of 30 nM SDF-1, as described (Azab A. K., et al., Blood, 114(3):619-29 (2009)).
as §1

[8] = patients with relapsed or refractory WM, oral; cited from earlier work
BCWM.1 cells [9] = assay: MTT cytotoxicity assay; format: cell-based, human
miRNA-155 = assay: qRT-PCR of miRNA-155 level in WM cell lines; format: cell-based, human; conditions: BCWM.1; MWCL.1; 0.1-1-10 nM, 12 hours
Experimental: qRT-PCR for miRNA-155 (TaqMan microRNA Assays, Applied Biosystems, Foster City, Calif.) was performed on an Applied Biosystems AB7500 Real Time PCR system.

BMSCs = assay: MTT viability of BMSCs; format: cell-based, human; conditions: 0.1-10 nM, 48 hours
Experimental: as §1

BCWM.1 cells [10] = conditions: everolimus 0.5 nM alone, 48 hours
BCWM.1 cells [11] = assay: Cell cycle analysis, PI staining and flow cytometry; format: cell-based, human; conditions: for cells in S phase: 12 hours (control 36.29%); for G1 phase BCWM.1 cells: 12 hours (control 52.52%)
mTOR = assay: Western blot of p-mTOR, p-p70S6K, p-4EBP1 in BCWM.1 and MWCL.1 cells; format: cell-based, human; conditions: 0.1-10 nM, 6 hours
Experimental: (§2) WM and IgM secreting cell lines were harvested and lysed using lysis buffer (Cell Signaling Technology, Beverly, Mass.) reconstituted with 5 mM NaF, 2 mM Na3VO4, 1 mM PMSF (polymethilsulfonyl fluoride), 5 μg/mL leupeptine, and 5 μg/mL aprotinin. Whole-cell lysates (50 μg/lane) were subjected to sodium dodecyl sulfate-polyacrylamide gel eletrophoresis (SDS-PAGE) and transferred to polyvinyldene fluoride (PVDF) membrane (Bio-Rad Laboratories, Hercules, Calif.). The antibodies used for immunoblotting included: anti-caspase3-, -caspase-9, -PARP, phospho (p)-mTOR, p-p70S6K, p-4EBP1, p-FAK-cyclinD1, -cyclinD2-p27^Kip1, -p21^Cip1, p-Akt, -Akt, pERK, -ERK, p-GSK3, -p-STAT3, -p-p65, -p-p50, -p-IkB, -nucleolin and -tubulin antibodies (Cell Signaling, Danvers, Mass.).

[12] = test system: WM and IgM low-grade lymphoma cells (BCWM.1; MWCL.1; RL); assay: DNA fragmentation (Cell Death Detection ELISA), apoptosis; format: cell-based, human; conditions: 0.1-10 nM, 24 hours
Text: Cell Death Detection ELISA (Roche Applied Science, Indianapolis, Ind.) was used to quantify DNA fragmentation, as per the manufacturer's instructions, and as previously described (Sacco A. et al., Clin Cancer Res., 17(7):1753-64 (2011)).

[13] = test system: mammalian target of rapamycin (mTOR); assay: Immunohistochemistry of p-4EBP1 and p-S6R in bone marrow biopsies pre- and post-everolimus; format: in vivo, human
Text: Bone marrow biopsies from WM patients at pretreatment and at the end of therapy were fixed in Zenker's formalin, embedded in paraffin blocks, and sectioned. Sections were stained for phospho(p)-4EBP1 and p-S6R (Cell Signaling Technology, Inc.). Signal quantification for each target was obtained from four different areas, on matched pre- and post-everolimus treatment of 4 patients presenting with partial response; and on matched pre- and post-everolimus treatment of 3 patients presenting with stable disease. Numbers of positive cells were obtained on 4 different fields of the bone marrow biopsy, and average and standard deviation provided, as previously described (Fingar D. C. et al., Mol. Cell. Biol., 24(1):200-16 (2004).
In contrast, everolimus-dependent modulation of phosphorylated ribosomal protein S6 (phospho(p)-S6R) and p-4EBP1 was not observed in those patients with stable disease (FIG. 9C).

BCWM.1 cells [14] = assay: Immunoblotting of cyclin D1, cyclin D2, p27Kip1, p21Cip1; format: cell-based, human; conditions: 0.1-10 nM, 12 hours
Experimental: as §2

BCWM.1 and MWCL.1 cells [15] = assay: MTT cytotoxicity in miRNA-155 knockdown probe-transfected WM cell lines; format: cell-based, human; conditions: 0.1-1-10 nM, 48 hours, knockdown probe vs scramble probe
BCWM.1 cells [16] = assay: Western blot of p-4EBP1 and p-70S6K in BCWM.1 cells cultured with HUVECs; conditions: 0.01-10 nM, 6 hours
Experimental: as §2
It was next sought to determine the effect of everolimus on modulating vessel formation. […] The impact of everolimus to target WM cells in presence of endothelial cells was next evaluated at signaling level.

[17] = test system: primary WM bone-marrow derived CD19+ cells; assay: MTT cytotoxicity on primary WM cells; format: cell-based, human; conditions: 0.1-10 nM, 48 hours, 4 patients with relapsed/refractory WM
Experimental: Next, it was sought to determine the underlying mechanisms that led to everolimus-dependent anti-tumor effect in WM. The activity of everolimus in targeting WM cells was tested in primary WM CD19^+ cells, and WM and IgM secreting lymphoma cell lines (BCWM1; MWCL.1; RL), as well as in normal PBMC-derived CD19^+ cells. […] Everolimus-induced toxicity in WM and IgM secreting lymphoma cell lines was subsequently validated.

BCWM.1 cells [18] = assay: Antibody-dependent cell-mediated cytotoxicity assay (ADCC); format: cell-based, human; conditions: E/T ratio of 10:1; rituximab 10 μg/mL, everolimus 1 nM, bortezomib 5 nM
Experimental: Briefly, interleukin-2 (IL-2; R&D, Minneapolis, Minn.)-activated PBMCs were used as effector cells and calcein-AM-labeled BCWM.1 cell line, as targets. PBMCs were separated from leukopheresis products from healthy donors over Ficoll-Hypaque solution after informed consent. Effector cells were used immediately at 37° C. in RPMI complete media after being activated with IL-2 (100 UI/mL for 36 hours). Target cells were labeled with calcein-AM for 1 hour at 37° C., washed thrice, and plated in triplicate in 96-well plates (5000 cells per well). ADCC was performed in the presence of rituximab (10 μg/mL) or human control IgG1 (2 ng/mL) at various effector-target (E/T) ratios (10:1, 20:1, and 40:1). The 96-well plates were centrifuged at 30 g for 2 minutes at room temperature, followed by a 4-hour incubation at 37° C. Culture supernatants were transferred to a Black ViewPlate-96 plate and read on Wallac VICTOR2 using 492/520 nm filter set (Perkin Elmer). Combinatory studies using everolimus (1 nM), Bortezomib (5 nM) and Rituximab (10 μg/mL) were also performed. This assay was valid only if (mean maximum release−medium control release)/(mean spontaneous release−medium control release) was more than 7. Spontaneous release is the CPM in the supernatant from wells containing target cells alone. Maximum release is the supernatants of wells containing target cells and Triton X-100. […]

## CO[C@H]1C[C@@H]2CC[C@@H](C)[C@@](O)(O2)C(=O)C(=O)N2CCCC[C@H]2C(=O)O[C@H]([C@H](C)C[C@@H]2CC[C@@H](OCCO)[C@H](OC)C2)CC(=O)[C@H](C)/C=C(\C)[C@@H](O)[C@@H](OC)C(=O)[C@H](C)C[C@H](C)/C=C/C=C/C=C/1C [everolimus, 40-O-(2-hydroxyethyl) derivative of sirolimus (rapamycin)]
BCWM.1 cells [1]
  BMSC-triggered proliferation of BCWM.1 cells: inhibited by everolimus in a dose-dependent manner
BCWM.1 cells [2]
  WM cell proliferation in presence of endothelial cells: reduced WM cell proliferation, despite the presence of endothelial cells
HUVECs; 1 nM everolimus
  capillary formation: almost complete inhibition of capillary formation
HUVECs; 0.01-10 nM
  endothelial cell morphogenesis on Matrigel: inhibited endothelial cell morphogenesis on Matrigel in a dose-dependent manner
[3]
  cell adhesion to primary WM bone marrow stromal cells: inhibited WM cell adhesion in a dose-dependent manner
BCWM.1 cells [4]
  cell proliferation: inhibiting cell proliferation
BCWM.1 and MWCL.1 cells [5]
  caspase-9, -3 and PARP cleavage: induced caspase-9, -3 and PARP cleavage in a dose dependent manner
WM-WSU, RL, MWCL.1 cells
  cytotoxicity: induction of cytotoxicity was validated
NF-κB p65
  TNF-α-induced NF-κB recruitment to the nucleus, single agents: similarly inhibited
[6]
  cytotoxicity: did not show cytotoxicity
BCWM.1 cells [7]
  migration towards SDF-1: inhibited WM cell migration towards SDF-1, in a dose-dependent manner
BCWM.1 cells [7]; listed as Everolimus
  migration towards SDF-1: inhibited SDF-1-induced migration
[8]
  minor response: 28%
  overall response rate: 70%
  partial response (PR): 42%
BCWM.1 cells [9]; 0.01-1 nM, 4 hours
  cytotoxicity at doses used for migration: did not induce cytotoxicity
BCWM.1 cells [9]; 0.01-40 nM, 48 hours
  cytotoxicity: inducing cytotoxicity in a dose-dependent manner
miRNA-155
  miRNA155 level: inhibited miRNA155 level in a dose-dependent manner
BMSCs
  viability of BMSCs: not affected
BCWM.1 cells [10]
  cytotoxicity, % of BCWM.1 cells: 24%
BCWM.1 cells [11]; 0.1 nM everolimus
  cells in S phase: 29.14%
  G1 phase BCWM.1 cells: 61.25%
BCWM.1 cells [11]; 1 nM everolimus
  cells in S phase: 21.71%
  G1 phase BCWM.1 cells: 70.98%
BCWM.1 cells [11]; 0.1-10 nM, 12 hours
  cell cycle progression: cell cycle arrest
mTOR
  p-mTOR, p-p70S6K and p-4EBP1: inhibition
[12]
  apoptosis (DNA fragmentation): induced apoptosis in a dose-dependent manner
[13]; patients with partial response, pre- vs post-everolimus
  phosphorylation of S6R and 4EBP1 in bone marrow biopsies: inhibition of phosphorylation
[13]; patients with stable disease
  modulation of p-S6R and p-4EBP1 in bone marrow biopsies: not observed
BCWM.1 cells [14]
  cyclin D1 and cyclin D2: down-regulation
  cyclin kinase inhibitor proteins p27Kip1, p21Cip1: up-regulation
BCWM.1 and MWCL.1 cells [15]
  everolimus-dependent induction of toxicity after miRNA155 knock down: partially inhibited by knocking down miRNA155
BCWM.1 cells [16]
  endothelial cell-dependent phosphorylation of 4EBP1 and 70SK in WM cells: inhibited endothelial cell-dependent phosphorylation of 4EBP1 and 70SK
[17]
  cytotoxic effect: significantly induced toxicity in all the 4 samples

## rituximab: the anti-CD20 antibody, rituximab
BCWM.1 cells [18]
  specific lysis: 37.7%
